Experimental data: patent US6107517A, “Thyroid hormone analogues and methods for their preparation” (The Regents of the University of California, priority 1999, dated 2000)

How the values were obtained:
[1] = target: T1, hTRβ (Homo sapiens, UniProt P10828); test: Receptor binding assay: competition with [125I]T3 for binding to recombinant hTRβ
T1 construct: expressed in transfected cells; host or cells: HeLa cells
T1 sequence (P10828 1-461): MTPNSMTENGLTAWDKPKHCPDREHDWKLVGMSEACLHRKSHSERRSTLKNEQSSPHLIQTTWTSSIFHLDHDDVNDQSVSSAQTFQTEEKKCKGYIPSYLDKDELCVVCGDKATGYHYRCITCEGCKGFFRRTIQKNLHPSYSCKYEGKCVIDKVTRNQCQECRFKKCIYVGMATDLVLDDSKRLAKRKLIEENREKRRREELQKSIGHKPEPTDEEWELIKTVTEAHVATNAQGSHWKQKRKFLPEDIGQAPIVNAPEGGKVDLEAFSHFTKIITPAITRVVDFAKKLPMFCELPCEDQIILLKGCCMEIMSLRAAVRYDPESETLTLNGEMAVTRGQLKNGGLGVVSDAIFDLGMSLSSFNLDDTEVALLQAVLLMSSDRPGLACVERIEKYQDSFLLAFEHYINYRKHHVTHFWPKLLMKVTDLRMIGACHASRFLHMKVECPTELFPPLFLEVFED
Procedure: (§1) To test the ability of synthesized human thyroid receptor (hTR) ligands to bind to two subtypes of hTR, hTRα and hTRβ, the binding affinity of a TR ligand for a TR can be assayed using TRs expressed in E. coli and [^125 I ] […] The binding affinity of a ligand for its receptor is defined by a constant termed Kd and can be calculated using a curve fitting program.
(§2) The ability of [^125 I] […] In control experiments, either purified recombinant hTRα or hTRβ was incubated with [^125 I] […] To test the analogues, either purified recombinant hTRα or hTRβ was incubated with [^125 I]

[2] = target: T2, hTRα (Homo sapiens, UniProt P10827); test: Receptor binding assay: competition with [125I]T3 for binding to recombinant hTRα
T2 construct: made in house; host or cells: E. coli
T2 sequence (P10827 1-410 isoform P10827-2): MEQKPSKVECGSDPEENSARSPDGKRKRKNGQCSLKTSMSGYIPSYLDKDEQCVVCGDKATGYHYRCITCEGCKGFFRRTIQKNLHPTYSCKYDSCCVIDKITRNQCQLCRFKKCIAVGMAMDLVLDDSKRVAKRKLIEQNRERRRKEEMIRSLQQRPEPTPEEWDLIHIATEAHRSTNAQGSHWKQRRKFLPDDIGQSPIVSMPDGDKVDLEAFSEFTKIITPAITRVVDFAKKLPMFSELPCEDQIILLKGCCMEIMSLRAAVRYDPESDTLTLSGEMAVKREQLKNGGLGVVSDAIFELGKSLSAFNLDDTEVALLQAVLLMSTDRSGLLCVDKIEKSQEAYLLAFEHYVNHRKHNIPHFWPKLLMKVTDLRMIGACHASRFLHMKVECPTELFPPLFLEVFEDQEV
Procedure: as §1, §2

[3] = target: T2, hTRα; test: Cellular transcription (luciferase) assay in HeLa cells overexpressing hTRα; format: cell-based; settings: for activation of transcription via hTRα (luciferase): 24 hours at 37° C., T3 10^-12 to 10^-7 M, I-3 10^-10 to 3×10^-5 M, I-1 10^-9 to 3×10^-5 M
Procedure: (§3) Cellular transactivation assays can be performed according to the procedure in Ribeiro R. C. et al. (1996) J. Biol. Chem. 271, 17147-17151. Briefly, HeLa cells are grown in 15 cm dishes in DME H-21, 4.5 g/L glucose with 10% newborn bovine serum, 2 mM glutamine, 50 units/ml penicillin, and 50 μg/ml streptomycin.
(§4) For transfections, cells are trypsinized, resuspended in buffer (PBS, 0.1% glucose), and mixed with a reporter gene construct and with or without the appropriate thyroid receptor (TR) expression vectors (CMV TR β1,CMV TR α1). One such reporter gene construct consists of a synthetic TR response element (DR-4) containing two copies of a direct repeat spaced by four nucleotides (AGGTCA-caggAGGTCA) cloned into the HindIII site of the pUC19 polylinker immediately upstream of a minimal (-32/+45) thymidine kinase promoter linked to luciferase coding sequences. Another reporter gene construct that can be used consists of the β-galactosidase coding sequence fused downstream of an actin promoter.
(§5) Cells in 0.5 ml of buffer (8+/-2 million cells) are electroporated using a Bio-Rad gene pulser at 0.35 kvolts and 960 microfarads. […] After incubation at 37° C. for 24 hours, incubation media is discarded and the cells are detached with 1 ml of calcium/magnesium-free PBS, 1mM EDTA, prewarmed at 37° C., and transferred to 1.5 ml Eppendorf tubes. Cells are pelleted by centrifugation in a microfuge for 15 seconds at room temperature. The supernatants are aspirated and the pellets are lysed by addition of 120 μl of Tris-Cl 0.25 M pH 7.6, 0.1% Triton. After resuspension by vortexing for 5-10 sec, the lysates are pelleted by centrifugation in a microfuge for 5 min at room temperature. One hundred μl of each Eppendorf tube lysate is added to 300 μl of 25 mM glycylglycine pH 7.8, 15 mM MgSO4, 4 mM EGTA, 15 mM potassium phosphate pH 7.8, 1 mM DTT, 2 mM ATP, and 0.2 mM Luciferine. The light output is measured for 10 sec at room temperature with a luminometer (Analytical Luminescence Laboratory, MONOLIGHT^R 1500). […]

[4] = target: T1, hTRβ; test: Cellular transcription (luciferase) assay in HeLa cells overexpressing hTRβ; format: cell-based; settings: for activation of transcription via hTRβ (luciferase): 24 hours at 37° C., T3 10^-12 to 10^-7 M, I-3 10^-10 to 3×10^-5 M, I-1 10^-9 to 3×10^-5 M
Procedure: as §3, §4, §5

[5] = test system: TRβ; settings: literature / earlier patent; cited from earlier work
[6] = test system: β-galactosidase reporter gene construct (HeLa cells); test: β-galactosidase reporter control expression in HeLa cells; format: cell-based; settings: 1nM T3 or Compound (I-1) 10^-6 M to 10^-5 M
From the text: as §4
Cells in 0.5 ml of buffer (8+/-2 million cells) are electroporated using a Bio-Rad gene pulser at 0.35 kvolts and 960 microfarads. […] After incubation at 37° C. for 24 hours, incubation media is discarded and the cells are detached with 1 ml of calcium/magnesium-free PBS, 1mM EDTA, prewarmed at 37° C., and transferred to 1.5 ml Eppendorf tubes. Cells are pelleted by centrifugation in a microfuge for 15 seconds at room temperature. The supernatants are aspirated and the pellets are lysed by addition of 120 μl of Tris-Cl 0.25 M pH 7.6, 0.1% Triton. […] The light output is measured for 10 sec at room temperature with a luminometer (Analytical Luminescence Laboratory, MONOLIGHT^R 1500).

[7] = test system: HeLa cells; test: Toxicity in HeLa cells (change in cell morphology, or lifting off of cells from a growth surface); format: cell-based
[8] = test system: luciferase reporter gene (HeLa cells); test: Luciferase activity in HeLa cells containing reporter constructs but no overexpressed hTRs; format: cell-based; settings: highest concentration [10^-5]
Procedure: as §3, §4
Cells in 0.5 ml of buffer (8+/-2 million cells) are electroporated using a Bio-Rad gene pulser at 0.35 kvolts and 960 microfarads. […] The light output is measured for 10 sec at room temperature with a luminometer (Analytical Luminescence Laboratory, MONOLIGHT^R 1500).

SMILES | Kd [1] [nM] | Kd [2] [nM] | activation of transcription via hTRα (luciferase) [3] | activation of transcription via hTRβ (luciferase) [4] | expression of β-galactosidase [6] | further results
CCCCN(C)C(=O)CCCCCC/C=C\CCC(c1ccc(O)c(C(C)C)c1)c1c(C)cc(OCC(=O)O)cc1C (centres unmarked) [Compound I-2] | ~721 | ~237 | – | – | – | –
C=CCC(c1ccc(O)c(C(C)C)c1)c1c(C)cc(OCC(=O)O)cc1C (centres unmarked) [Compound I-3] | ~36 | ~138 | able to stimulate transcription and translation of the luciferase gene through both subtypes of hTR, though to a lesser degree than. T3 | able to stimulate transcription and translation of the luciferase gene through both subtypes of hTR, though to a lesser degree than. T3 | – | –
Cc1cc(OCC(=O)O)cc(C)c1Cc1ccc(O)c(C(C)C)c1 [GC-1] | – | – | – | – | – | affinity and TR subtype selectivity (background) [5]: high affinity TRP-selective agonist ligand
N[C@@H](Cc1cc(I)c(Oc2ccc(O)c(I)c2)c(I)c1)C(=O)O [Compound T3, 3,5,3'-triiodo-L-thyronine, reference compound] | – | – | – | – | not affected | –
CCCCN(C)C(=O)CCCCCCCCCCC(c1ccc(O)c(C(C)C)c1)c1c(C)cc(OCC(=O)O)cc1C (centres unmarked) [Compound I-1] | ~180 | ~77 | did not appear to activate hTR-mediated transcription | did not appear to activate hTR-mediated transcription | not affected | concentration at which toxicity was observed [7]: 10 µM; competition with T3 / antagonism, hTRα [3]: still able to compete with T3; luciferase activity without cotransfected TR-expression construct [8]: occurs even when a TR-expression construct is not cotransfected into HeLa cells; competition with T3 / antagonism, hTRβ [4]: still able to compete with T3
